Results: paper PMC7900168, “Nanocomposite-based dual enzyme system for broad-spectrum scavenging of reactive oxygen species” (Scientific Reports, 2021)

System: T1, horseradish peroxidase (HRP)
T1 construct: gene PRXC1A; native enzyme, free in solution
Experiment: guaiacol oxidation assay, spectrophotometric, Michaelis-Menten fit
Format: biochemical, Armoracia rusticana
Settings: native free enzyme; co-substrate hydrogen peroxide
Source text: guaiacol oxidation assay, spectrophotometric, Michaelis-Menten fit on horseradish peroxidase (HRP)

- Km: 1560 ± 80 µM
SMILES: COc1ccccc1O [guaiacol]
